# Molecular target: C5aR (Homo sapiens (Human), UniProt P21730)
# Assay: Chemotaxis assay using U937 cells (C5aR mediated migration)
# Type: cell-based
# Conditions: read-out: Mig IC50
# Description: U937 cells are a monocytic cell line which express C5aR, and are available from ATCC (VA). These cells were cultured as a suspension in RPMI-1640 medium supplemented with 2 mM L-glutamine, 1.5 g/L sodium bicarbonate, 4.5 g/L glucose, 10 mM HEPES, 1 mM sodium pyruvate, and 10% FBS. Cells were grown under 5% CO2/95% air, 100% humidity at 37° C. and subcultured twice weekly at 1:6 (cells were cultured at a density range of 1×10^5 to 2×10^6 cells/mL) and harvested at 1×10^6 cells/mL. Prior to assay, cells are treated overnight with 0.5 mM of cyclic AMP (Sigma, OH) and washed once prior to use. cAMP treated U937 cells can be used in C5aR ligand binding and functional assays.
# Optionally, compounds may be further assayed for their ability to inhibit chemotaxis in cells. Chemotaxis assays are performed using 5 μm pore polycarbonate, polyvinylpyrrolidone-coated filters in 96-well chemotaxis chambers (Neuroprobe; Gaithersburg, Md.) using chemotaxis buffer (Hank's balanced salt solution (HBSS) and 1% FBS). C5aR ligands (i.e., C5a, R&D Systems; Minneapolis, Minn.) are use to evaluate compound mediated inhibition of C5aR mediated migration. Other chemokines (i.e., SDF-1α; R&D Systems; Minneapolis, Minn.) are used as specificity controls. The lower chamber is loaded with 29 μl of chemokine (i.e., 0.03 nM C5a) and varying amounts of compound; the top chamber contains 100,000 U937 or neutrophil cells in 20 μl. The chambers are incubated 1.5 hours at 37° C., and the number of cells in the lower chamber quantified either by direct cell counts in five high powered fields per well or by the CyQuant assay (Molecular Probes), a fluorescent dye method that measures nucleic acid content and microscopic observation.
# The compounds in Table 1, below, were prepared using the methods described above. Characterization data is provided for each compound listed. Activity is provided as follows for the chemotaxis assay using U937 cells as described herein (Example 12): +, 500 nM<IC50; ++, 50 nM<IC50≤500 nM; +++, 5 nM<IC50≤50 nM; and ++++, IC50≤5 nM.
# C5aR, sequence (P21730 whole entry): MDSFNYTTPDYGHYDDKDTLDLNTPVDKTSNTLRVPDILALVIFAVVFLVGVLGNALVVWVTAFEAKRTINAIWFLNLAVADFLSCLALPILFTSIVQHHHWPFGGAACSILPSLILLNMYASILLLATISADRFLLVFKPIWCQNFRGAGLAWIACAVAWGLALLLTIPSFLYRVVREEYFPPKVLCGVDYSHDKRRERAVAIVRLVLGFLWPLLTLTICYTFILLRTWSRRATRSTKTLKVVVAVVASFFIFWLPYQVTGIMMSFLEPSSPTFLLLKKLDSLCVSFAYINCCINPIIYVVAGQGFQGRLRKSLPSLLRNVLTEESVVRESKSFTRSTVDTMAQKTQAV
row,Structure (SMILES),IC50 [nM]
1,CCc1cccc(CC)c1-n1nc2c(c1-c1cc(F)c(NC(N)=O)cc1F)CN(CC(C)(C)C(F)(F)F)CC2 [Example 1.001],≤ 5
2,CCc1cccc(CC)c1-n1nc2c(c1-c1cc(F)c(NC(=O)CO)cc1F)CN(Cc1ccc(C(F)(F)F)cc1C(F)(F)F)CC2 [Example 1.002],50 to 500
3,CCc1cccc(CC)c1-n1nc2c(c1-c1cc(F)c(NC=O)cc1F)CN(Cc1ccc(C(F)(F)F)cc1C(F)(F)F)CC2 [Example 1.003],≤ 5
4,CCc1cccc(CC)c1-n1nc2c(c1-c1cc(F)c(N)cc1F)CN(Cc1ccc(C(F)(F)F)cc1C(F)(F)F)CC2 [Example 1.004],5 to 50
5,CCc1cccc(CC)c1-n1nc2c(c1-c1cc(F)c(NC(N)=O)cc1F)CN(C(=O)c1ccnn1C)C(C)(C)C2 [Example 1.005],5 to 50
6,CCc1cccc(CC)c1-n1nc2c(c1-c1cc(F)c(NC(C)=O)cc1F)CN(Cc1ccc(C(F)(F)F)cc1C(F)(F)F)CC2 [Example 1.006],5 to 50
7,CCc1cccc(CC)c1-n1nc2c(c1-c1cc(F)c(NC(N)=O)cc1F)CN(Cc1ccccc1Cl)C(C)(C)C2 [Example 1.007],≤ 5
8,CCc1cccc(CC)c1-n1nc2c(c1-c1cc(F)c(NC(N)=O)cc1F)CN(CCCC(F)(F)F)C(C)(C)C2 [Example 1.008],≤ 5
9,CCc1cccc(CC)c1-n1nc2c(c1-c1cc(F)c(NC(N)=O)cc1F)CN(CC)C(C)(C)C2 [Example 1.009],5 to 50
10,CCc1cccc(CC)c1-n1nc2c(c1-c1cc(F)c(NC(N)=O)cc1F)CN(CC1(C)COC1)C(C)(C)C2 [Example 1.010],5 to 50
11,CCc1cccc(CC)c1-n1nc2c(c1-c1cc(F)c(NC(N)=O)cc1F)CN(Cc1cc(C(F)(F)F)ccc1C(F)(F)F)C(C)(C)C2 [Example 1.011],≤ 5
12,CCc1cccc(CC)c1-n1nc2c(c1-c1cc(F)c(NC(N)=O)cc1F)CN(Cc1ccc(F)cc1C(F)(F)F)C(C)(C)C2 [Example 1.012],≤ 5
13,CCc1cccc(CC)c1-n1nc2c(c1-c1cc(F)c(NC(N)=O)cc1F)CN(c1ncc(Cl)cc1Cl)[C@@H](C)C2 [Example 1.013],≤ 5
14,CCc1cccc(CC)c1-n1nc2c(c1-c1cc(F)c(NC(N)=O)cc1F)CN(Cc1cccc(C(F)(F)F)c1)C(C)(C)C2 [Example 1.014],≤ 5
15,CCc1cccc(CC)c1-n1nc2c(c1-c1cc(F)c(NC(N)=O)cc1F)CN(Cc1ccc(Cl)cc1C(F)(F)F)[C@@H](C)C2 [Example 1.015],≤ 5
16,CCc1cccc(CC)c1-n1nc2c(c1-c1cc(F)c(NC(N)=O)cc1F)CN(Cc1ccc(C(F)(F)F)cc1C(F)(F)F)[C@@H](C)C2 [Example 1.016],≤ 5
17,CCc1cccc(CC)c1-n1nc2c(c1-c1cc(F)c(NC(N)=O)cc1F)CN(Cc1ccc(C(F)(F)F)cc1)C(C)(C)C2 [Example 1.017],≤ 5
18,CCc1cccc(CC)c1-n1nc2c(c1-c1cc(F)c(NC(N)=O)cc1F)CN(c1ncc(Cl)cc1Cl)[C@H](C)C2 [Example 1.018],≤ 5
19,CCc1cccc(CC)c1-n1nc2c(c1-c1cc(F)c(NC(N)=O)cc1F)CN(CC1CCOCC1)CC2 [Example 1.019],5 to 50
20,CCc1cccc(CC)c1-n1nc2c(c1-c1cc(F)c(NC(N)=O)cc1F)CN(CC1CCOC1)CC2 (stereo not drawn) [Example 1.020],5 to 50
21,CCc1cccc(CC)c1-n1nc2c(c1-c1cc(F)c(NC(N)=O)cc1F)CN(Cc1ccc(Cl)cc1C(F)(F)F)[C@H](C)C2 [Example 1.021],≤ 5
22,CCc1cccc(CC)c1-n1nc2c(c1-c1cc(F)c(NC(N)=O)cc1F)CN(Cc1ccc(C(F)(F)F)cc1C(F)(F)F)[C@H](C)C2 [Example 1.022],≤ 5
23,CCc1cccc(CC)c1-n1nc2c(c1-c1cc(F)c(NC(N)=O)cc1F)CN(Cc1cc(Cl)ccc1Cl)C(C)(C)C2 [Example 1.023],≤ 5
24,CCc1cccc(CC)c1-n1nc2c(c1-c1cc(F)c(NC(N)=O)cc1F)CN(Cc1ccc(Cl)cc1Cl)C(C)(C)C2 [Example 1.024],≤ 5
25,CCc1cccc(CC)c1-n1nc2c(c1-c1cc(F)c(NC(N)=O)cc1F)CN(C(=O)OC(C)(C)C)[C@H](C)C2 [Example 1.025],≤ 5
26,CCc1cccc(CC)c1-n1nc2c(c1-c1cc(F)c(NC(N)=O)cc1F)CN(Cc1cnc(C)cc1C)CC2 [Example 1.026],5 to 50
27,CCc1cccc(CC)c1-n1nc2c(c1-c1cc(F)c(NC(N)=O)cc1F)CN(Cc1ccccc1C(F)(F)F)C(C)(C)C2 [Example 1.027],≤ 5

row,Structure (SMILES),IC50 [nM]
1,CCc1cccc(CC)c1-n1nc2c(c1-c1cc(F)c(NC(N)=O)cc1F)CN(Cc1cc(F)ccc1C(F)(F)F)CC2 [Example 1.028],≤ 5
2,CCc1cccc(CC)c1-n1nc2c(c1-c1cc(F)c(NC(N)=O)cc1F)CN(C(=O)C1CCOCC1)C(C)(C)C2 [Example 1.029],5 to 50
3,CCc1cccc(CC)c1-n1nc2c(c1-c1cc(F)c(NC(N)=O)cc1F)CN(C(=O)C(C)C)CC2 [Example 1.030],5 to 50
4,CCc1cccc(CC)c1-n1nc2c(c1-c1cc(F)c(NC(N)=O)cc1F)CN(Cc1cc(Cl)ccc1C(F)(F)F)C(C)(C)C2 [Example 1.031],≤ 5
5,CCc1cccc(CC)c1-n1nc2c(c1-c1cc(F)c(NC(N)=O)cc1F)CN(C(=O)C(C)C)C(C)(C)C2 [Example 1.032],≤ 5
6,Cc1cccc(C)c1-n1nc2c(c1-c1cc(F)c(NC(N)=O)cc1F)CN(Cc1ccc(C(F)(F)F)cc1C(F)(F)F)C(C)(C)C2 [Example 1.033],≤ 5
7,CCc1cccc(CC)c1-n1nc2c(c1-c1cc(F)c(NC(N)=O)cc1F)CN(Cc1ccc(C)cc1C(F)(F)F)CC2 [Example 1.034],≤ 5
8,CCc1cccc(CC)c1-n1nc2c(c1-c1cc(F)c(NC(N)=O)cc1F)CN(Cc1ccc(C(F)(F)F)cc1Cl)C(C)(C)C2 [Example 1.035],≤ 5
9,CCc1cccc(CC)c1-n1nc2c(c1-c1cc(F)c(NC(N)=O)cc1F)CN(Cc1cc(C(F)(F)F)ccc1C)CC2 [Example 1.036],≤ 5
10,CCc1cccc(CC)c1-n1nc2c(c1-c1cc(F)c(NC(N)=O)cc1F)CN(Cc1cc(C(F)(F)F)ccc1OC)CC2 [Example 1.037],≤ 5
11,CCc1cccc(CC)c1-n1nc2c(c1-c1cc(F)c(NC(N)=O)cc1F)CN(Cc1cc(C(F)(F)F)ccc1Cl)CC2 [Example 1.038],≤ 5
12,CCc1cccc(CC)c1-n1nc2c(c1-c1cc(F)c(NC(N)=O)cc1F)CN(Cc1cc(C(F)(F)F)ccc1F)CC2 [Example 1.039],≤ 5
13,CCc1cccc(CC)c1-n1nc2c(c1-c1cc(F)c(NC(N)=O)cc1F)CN(CC1CCOCC1)C(C)(C)C2 [Example 1.040],≤ 5
14,CCc1cccc(CC)c1-n1nc2c(c1-c1cc(F)c(NC(N)=O)cc1F)CN(Cc1cccn(C)c1=O)CC2 [Example 1.041],> 500
15,CCc1cccc(CC)c1-n1nc2c(c1-c1cc(F)c(NC(N)=O)cc1OC)CN(Cc1ccc(C(F)(F)F)cc1C(F)(F)F)CC2 [Example 1.042],≤ 5
16,CCc1cccc(CC)c1-n1nc2c(c1-c1cc(F)c(NC(N)=O)cc1F)CN(CC1CCCC1)C(C)(C)C2 [Example 1.043],≤ 5
17,CCc1cccc(CC)c1-n1nc2c(c1-c1cc(F)c(NC(N)=O)cc1F)CN(Cc1ccc(F)cc1C(F)(F)F)CC2 [Example 1.044],≤ 5
18,CCc1cccc(CC)c1-n1nc2c(c1-c1cc(F)c(NC(N)=O)cc1F)CN(Cc1cc(OC)ccc1C(F)(F)F)CC2 [Example 1.045],≤ 5
19,CCc1cccc(CC)c1-n1nc2c(c1-c1cc(F)c(NC(N)=O)cc1F)CN(Cc1cc(F)ccc1F)CC2 [Example 1.046],≤ 5
20,CCc1cccc(CC)c1-n1nc2c(c1-c1cc(F)c(NC(N)=O)cc1F)CN(Cc1ccc(C(F)(F)F)cc1C)C(C)(C)C2 [Example 1.047],≤ 5
21,CCc1cccc(CC)c1-n1nc2c(c1-c1cc(F)c(NC(N)=O)cc1F)CN(Cc1ccc(C#N)cc1C(F)(F)F)CC2 [Example 1.048],≤ 5
22,CCc1cccc(CC)c1-n1nc2c(c1-c1cc(F)c(NC(N)=O)cc1F)CN(Cc1ccc(C(F)(F)F)cc1F)C(C)(C)C2 [Example 1.050],≤ 5
23,CCc1cccc(CC)c1-n1nc2c(c1-c1cc(F)c(NC(N)=O)cc1F)CN(Cc1ccccc1)CC2 [Example 1.051],≤ 5
24,CCc1cccc(CC)c1-n1nc2c(c1-c1cc(F)c(NC(N)=O)cc1F)CN(Cc1ccc(Cl)cc1C(F)(F)F)C(C)(C)C2 [Example 1.052],≤ 5
25,CCc1cccc(CC)c1-n1nc2c(c1-c1cc(F)c(NC(N)=O)cc1F)CN(Cc1ccc(OC)cc1C(F)(F)F)CC2 [Example 1.053],≤ 5
26,CCc1cccc(CC)c1-n1nc2c(c1-c1cc(F)c(NC(N)=O)cc1F)CN(Cc1ccc(C(C)(C)C)cc1)CC2 [Example 1.054],≤ 5
27,CCc1cccc(CC)c1-n1nc2c(c1-c1cc(F)c(NC(N)=O)cc1F)CN(Cc1cc(C(F)(F)F)ccc1C(F)(F)F)CC2 [Example 1.055],≤ 5

# From patent US11478460B2, “Diaryl substituted 6,5-fused ring compounds as C5aR inhibitors” (CHEMOCENTRYX, INC., priority 2017, dated 2022)
